Measurements: patent publication US20260234403A1, “PHOTOACTIVE FLUORESCENT COMPOUNDS AND USE THEREOF FOR LABELING OF PROTEINS” (EIKON THERAPEUTICS, INC., priority 2023, published 2026)

Tested on: Wild-type (WT) U2OS cells
Experiment: Reduction in nonspecific labeling of WT cells (number of tracks vs PA-JF549)
Type: cell-based
Details: 100 nM, 1 hr, ratio with PA-JF549 in the numerator
Experimental: Using the methods described in Tables 4a and 4b above, labelling specificity of the compound of Examples 1-28 was measured and compared to PA-JF549. U2OS cells wild type or expressing ER-HaloTag fusion were incubated with PA-JF549 or Examples 1-28 for 1 hr. […] Labeling specificity, as measured by the fold reduction in nonspecific labeling of WT cells, was calculated by number of tracks measured in WT cells for Examples 1-28 compared to the number of tracks in WT cells for PA-JF549, expressed as the ratio with PA-JF549 in the numerator.

[1] = Table 4b, Example 19 with 642 nm light

Compound	Fold reduction in nonspecific labeling [1]	Fold reduction in nonspecific labeling (Table 4a)
1,1′-(6-((2-(2-((6-chlorohexyl)oxy)ethoxy)ethyl)carbamoyl)-2-diazo-3-oxo-2,3-dihydrospiro[indene-1,9′-xanthene]-3′,6′-diyl)bis(azetidine-3-carboxamide [Example 20]	>10	–
CN(C)C(=O)C1CN(c2ccc3c(c2)Oc2cc(N4CC(C(=O)N(C)C)C4)ccc2C32C(=[N+]=[N-])C(=O)c3ccc(C(=O)NCc4ccc(COc5nc(N)nc6nc[nH]c56)cc4)cc32)C1 [Example 5, 1,1′-(6-((4-(((2-amino-7H-purin-6-yl)oxy)methyl)benzyl)carbamoyl)-2-diazo-3-oxo-2,3-dihydrospiro[indene-1,9′-xanthene]-3′,6′-diyl)bis(N,N-dimethylazetidine-3-carboxamide)]	>10	>10
COC(=O)[C@H]1CCN1c1ccc2c(c1)Oc1cc(N3CC[C@@H]3C(=O)OC)ccc1C21C(=[N+]=[N-])C(=O)c2ccc(C(=O)NCCOCCOCCCCCCCl)cc21 [Example 6, Dimethyl 1,1′-(6-((2-(2-((6-chlorohexyl)oxy)ethoxy)ethyl)carbamoyl)-2-diazo-3-oxo-2,3-dihydrospiro[indene-1,9′-xanthene]-3′,6′-diyl)(2R,2′R)-bis(azetidine-2-carboxylate)]	1-5	1-5
[N-]=[N+]=C1C(=O)c2ccc(C(=O)NCCOCCOCCCCCCCl)cc2C12c1ccc(N3CC(O)C3)cc1Oc1cc(N3CC(O)C3)ccc12 [Example 7, N-(2-(2-((6-chlorohexyl)oxy)ethoxy)ethyl)-2-diazo-3′,6′-bis(3-hydroxyazetidin-1-yl)-3-oxo-2,3-dihydrospiro[indene-1,9′-xanthene]-6-carboxamide]	>10	>10
CN(CCOCCOCCCCCCCl)C(=O)c1ccc2c(c1)C1(C(=[N+]=[N-])C2=O)c2ccc(N3CCC3)cc2Oc2cc(N3CCC3)ccc21 [Example 8, 3′,6′-di(azetidin-1-yl)-N-(2-(2-((6-chlorohexyl)oxy)ethoxy)ethyl)-2-diazo-N-methyl-3-oxo-2,3-dihydrospiro[indene-1,9′-xanthene]-6-carboxamide]	5-10	5-10
[N-]=[N+]=C1C(=O)c2ccc(C(=O)NCCOCCOCCCCCCCl)cc2C12c1ccc(N3CC(C(=O)N4CCOCC4)C3)cc1Oc1cc(N3CC(C(=O)N4CCOCC4)C3)ccc12 [Example 9, N-(2-(2-((6-chlorohexyl)oxy)ethoxy)ethyl)-2-diazo-3′,6′-bis(3-(morpholine-4-carbonyl)azetidin-1-yl)-3-oxo-2,3-dihydrospiro[indene-1,9′-xanthene]-6-carboxamide]	>10	>10
[N-]=[N+]=C1C(=O)c2ccc(C(=O)NCCOCCOCCCCCCCl)cc2C12c1ccc(N3CC(C(=O)N4CCCC4)C3)cc1Oc1cc(N3CC(C(=O)N4CCCC4)C3)ccc12 [Example 10, N-(2-(2-((6-chlorohexyl)oxy)ethoxy)ethyl)-2-diazo-3-oxo-3′,6′-bis(3-(pyrrolidine-1-carbonyl)azetidin-1-yl)-2,3-dihydrospiro[indene-1,9′-xanthene]-6-carboxamide]	5-10	5-10
CN1CCN(C(=O)C2CN(c3ccc4c(c3)Oc3cc(N5CC(C(=O)N6CCN(C)CC6)C5)ccc3C43C(=[N+]=[N-])C(=O)c4ccc(C(=O)NCCOCCOCCCCCCCl)cc43)C2)CC1 [Example 11, N-(2-(2-((6-chlorohexyl)oxy)ethoxy)ethyl)-2-diazo-3′,6′-bis(3-(4-methylpiperazine-1-carbonyl)azetidin-1-yl)-3-oxo-2,3-dihydrospiro[indene-1,9′-xanthene]-6-carboxamide]	1-5	1-5
CNC(=O)C1CN(c2ccc3c(c2)Oc2cc(N4CC(C(=O)NC)C4)ccc2C32C(=[N+]=[N-])C(=O)c3ccc(C(=O)NCCOCCOCCCCCCCl)cc32)C1 [Example 12, 1,1′-(6-((2-(2-((6-chlorohexyl)oxy)ethoxy)ethyl)carbamoyl)-2-diazo-3-oxo-2,3-dihydrospiro[indene-1,9′-xanthene]-3′,6′-diyl)bis(N-methylazetidine-3-carboxamide)]	>10	>10
CN(C)C1CN(c2ccc3c(c2)Oc2cc(N4CC(N(C)C)C4)ccc2C32C(=[N+]=[N-])C(=O)c3ccc(C(=O)NCCOCCOCCCCCCCl)cc32)C1 [Example 13, N-(2-(2-((6-chlorohexyl)oxy)ethoxy)ethyl)-2-diazo-3′,6′-bis(3-(dimethylamino)azetidin-1-yl)-3-oxo-2,3-dihydrospiro[indene-1,9′-xanthene]-6-carboxamide]	5-10	5-10
CN(C)C(=O)[C@@H]1CCN1c1ccc2c(c1)Oc1cc(N3CC[C@H]3C(=O)N(C)C)ccc1C21C(=[N+]=[N-])C(=O)c2ccc(C(=O)NCCOCCOCCCCCCCl)cc21 [Example 14, (2S,2′S)-1,1′-(6-((2-(2-((6-chlorohexyl)oxy)ethoxy)ethyl)carbamoyl)-2-diazo-3-oxo-2,3-dihydrospiro[indene-1,9′-xanthene]-3′,6′-diyl)bis(N,N-dimethylazetidine-2-carboxamide)]	>10	>10
[N-]=[N+]=C1C(=O)c2ccc(C(=O)NCCOCCOCCCCCCCl)cc2C12c1ccc(N3CC[C@@H]3CO)cc1Oc1cc(N3CC[C@@H]3CO)ccc12 [Example 15, N-(2-(2-((6-chlorohexyl)oxy)ethoxy)ethyl)-2-diazo-3′,6′-bis((R)-2-(hydroxymethyl)azetidin-1-yl)-3-oxo-2,3-dihydrospiro[indene-1,9′-xanthene]-6-carboxamide]	5-10	5-10
CN(C)C(=O)[C@H]1CCN(c2ccc3c(c2)Oc2cc(N4CC[C@H](C(=O)N(C)C)C4)ccc2C32C(=[N+]=[N-])C(=O)c3ccc(C(=O)NCCOCCOCCCCCCCl)cc32)C1 [Example 16, (3S,3′S)-1,1′-(6-((2-(2-((6-chlorohexyl)oxy)ethoxy)ethyl)carbamoyl)-2-diazo-3-oxo-2,3-dihydrospiro[indene-1,9′-xanthene]-3′,6′-diyl)bis(N,N-dimethylpyrrolidine-3-carboxamide)]	5-10	5-10
[N-]=[N+]=C1C(=O)c2ccc(C(=O)NCCOCCOCCCCCCCl)cc2C12c1ccc(N3C4COCC3C4)cc1Oc1cc(N3C4COCC3C4)ccc12 (stereo not shown) [Example 17, 3′,6′-di(3-oxa-6-azabicyclo[3.1.1]heptan-6-yl)-N-(2-(2-((6-chlorohexyl)oxy)ethoxy)ethyl)-2-diazo-3-oxo-2,3-dihydrospiro[indene-1,9′-xanthene]-6-carboxamide]	1-5	1-5
CN1CC2CC(C1)N2c1ccc2c(c1)Oc1cc(N3C4CC3CN(C)C4)ccc1C21C(=[N+]=[N-])C(=O)c2ccc(C(=O)NCCOCCOCCCCCCCl)cc21 (stereo not shown) [Example 18, N-(2-(2-((6-chlorohexyl)oxy)ethoxy)ethyl)-2-diazo-3′,6′-bis(3-methyl-3,6-diazabicyclo[3.1.1]heptan-6-yl)-3-oxo-2,3-dihydrospiro[indene-1,9′-xanthene]-6-carboxamide]	>10	>10
CN(C)C(=O)C1CN(c2ccc3c(c2)[Si](C)(C)c2cc(N4CC(C(=O)N(C)C)C4)ccc2C32C(=[N+]=[N-])C(=O)c3ccc(C(=O)NCCOCCOCCCCCCCl)cc32)C1 [Example 19, 1,1′-(6′-((2-(2-((6-chlorohexyl)oxy)ethoxy)ethyl)carbamoyl)-2′-diazo-5,5-dimethyl-3′-oxo-2′,3′-dihydro-5H-spiro[dibenzo[b,e]siline-10,1′-indene]-3,7-diyl)bis(N,N-dimethylazetidine-3-carboxamide)]	>10	–
O=C1OC2(c3ccc(N4CCC4)cc3Oc3cc(N4CCC4)ccc32)c2cc(NCCOCCOCCCCCCCl)ccc21 [Example 21, 3′,6′-di(azetidin-1-yl)-6-((2-(2-((6-chlorohexyl)oxy)ethoxy)ethyl)amino)-3H-spiro[isobenzofuran-1,9′-xanthen]-3-one]	5-10	–
[N-]=[N+]=C1C(=O)c2ccc(NC(=O)CCOCCOCCCCCCCl)cc2C12c1ccc(N3CCC3)cc1Oc1cc(N3CCC3)ccc12 [Example 22, 3-(2-((6-chlorohexyl)oxy)ethoxy)-N-(3′,6′-di(azetidin-1-yl)-2-diazo-3-oxo-2,3-dihydrospiro[indene-1,9′-xanthen]-6-yl)propanamide]	5-10	–
[N-]=[N+]=C1C(=O)c2ccc(CCCCOCCOCCCCCCCl)cc2C12c1ccc(N3CCC3)cc1Oc1cc(N3CCC3)ccc12 [Example 24, 3′,6′-di(azetidin-1-yl)-6-(4-(2-((6-chlorohexyl)oxy)ethoxy)butyl)-2-diazospiro[indene-1,9′-xanthen]-3(2H)-one]	1-5	–
[N-]=[N+]=C1C(=O)c2ccc(OCCCOCCOCCCCCCCl)cc2C12c1ccc(N3CCC3)cc1Oc1cc(N3CCC3)ccc12 [Example 25, 3′,6′-di(azetidin-1-yl)-6-(3-(2-((6-chlorohexyl)oxy)ethoxy)propoxy)-2-diazospiro[indene-1,9′-xanthen]-3(2H)-one]	<1	–
